Measurements published in patent US20240316038A1, “APOL1 INHIBITORS AND METHODS OF USE” (Maze Therapeutics, Inc., priority 2021, published 2024).

How the values were obtained:
[1] = target: T1, APOL1 G2 (Homo sapiens, UniProt O14791, DEL388-389); assay: APOL1 calcium transport inhibition assay (GCaMP6f calcium influx, FLIPR) in HEK T-REx/GCaMP6f/APOL1 G2 K6.3 cells; assay type: cell-based; conditions: inhibition of APOL1-mediated calcium influx; geometric mean of at least 2 assay runs, † = single assay run (technical duplicate)
T1 construct: expressed in transfected cells; host or cells: HEK293 T-REx clonal lines: HEK T-REx/GCaMP6f/APOL1 G2 K6.3 in A1, HEK293/T-REx APOL1 G2/clone #2 in A2
T1 sequence (O14791 with tags, fused parts or gaps DEL388-389): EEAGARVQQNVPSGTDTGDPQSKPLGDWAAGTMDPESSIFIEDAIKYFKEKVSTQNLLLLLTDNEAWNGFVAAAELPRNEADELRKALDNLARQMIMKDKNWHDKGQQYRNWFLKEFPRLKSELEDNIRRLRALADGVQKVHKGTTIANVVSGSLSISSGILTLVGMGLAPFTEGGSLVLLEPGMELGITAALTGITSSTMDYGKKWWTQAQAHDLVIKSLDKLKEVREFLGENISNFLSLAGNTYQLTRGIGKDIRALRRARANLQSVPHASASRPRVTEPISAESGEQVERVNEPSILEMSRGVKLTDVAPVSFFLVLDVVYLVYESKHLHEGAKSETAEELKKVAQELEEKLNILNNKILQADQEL
In short: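 HEK293 cells stably expressing GCaMP6f, APOL1 G2 induced 6 h with doxycycline (20 ng/mL added), then washed into Ca2+-free Tyrode's buffer pH 7.4. Compounds (8-point dose response) preincubated 10 min at room temperature, then Ca2+ injected to 5 mM final and influx read on FLIPR. AC50 reported as geometric mean of runs.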

[2] = target: T1, APOL1 G2; assay: Rescue of HEK293 cell death caused by overexpression of APOL1 (CellTiter-Glo luminescence), HEK293/T-REx APOL1 G2/clone #2; assay type: cell-based; conditions: reversal of cell death caused by overexpression of APOL1; geometric mean of at least 2 assay runs, † = single assay run (technical duplicate)
In short: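 Rescue EC50s come from four-parameter logistic fits, geometric mean of at least 2 runs on separate days, each in duplicate. Readout: CellTiter-Glo luminescence after 17 h at 37 °C of 5,000 HEK293/T-REx APOL1 G2 clone #2 cells/well, with 6 ng/mL doxycycline to induce APOL1 and 3-fold serial compound dilutions in 0.5% DMSO.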

| Structure (SMILES) | AC50 [1] | EC50 [2] |
| --- | --- | --- |
| COC1CCN(CCc2cccc(Cl)c2)CC1COc1ccc(S(C)(=O)=O)cc1 (single isomer, unassigned) [Compound 37, (3R,4R) or (3S,4S) or (3R,4S) or (3S,4R)-1-(3-chlorophenethyl)-4-methoxy-3-((4-(methylsulfonyl)phenoxy)methyl) piperidine] | 3840 nM | > 6150 nM |
| COC1CCN(CCc2cccc(Cl)c2)CC1COc1ccc(S(C)(=O)=O)cc1 (single isomer, unassigned) [Compound 38, (3S,4S) or (3R,4S) or (3 S,4R) or (3R,4R)-1-(3-chlorophenethyl)-4-methoxy-3-((4-(methylsulfonyl)phenoxy)methyl) piperidine] | < 253 nM | 407 nM |
| CS(=O)(=O)c1ccc(CCC2CCCN(CCc3cccc(Cl)c3)C2)cc1 (single isomer, unassigned) [Compound 40, (S) or (R)-1-(3-chlorophenethyl)-3-(4-(methylsulfonyl)phenethyl)piperidine] | < 118 nM | 746 nM |
| CS(=O)(=O)c1ccc(CCC2CCCN(CCc3cccc(Cl)c3)C2)cc1 (single isomer, unassigned) [Compound 41, (R) or (S)-1-(3-chlorophenethyl)-3-(4-(methylsulfonyl)phenethyl)piperidine] | 2110 nM | 2820 nM |
| CC1(C)CC(COc2ccc(S(C)(=O)=O)cc2)CN1CCc1cccc(Cl)c1 (single isomer, unassigned) [Compound 43, (S) or (R)-1-(3-chlorophenethyl)-2,2-dimethyl-4-((4-(methylsulfonyl)phenoxy)methyl) pyrrolidine] | 237 nM | 31 nM |
| CC1(C)CC(COc2ccc(S(C)(=O)=O)cc2)CN1CCc1cccc(Cl)c1 (single isomer, unassigned) [Compound 44, (R) or (S)-1-(3-chlorophenethyl)-2,2-dimethyl-4-((4-(methylsulfonyl)phenoxy)methyl)pyrrolidine] | 2220 nM | 2430 nM |
| C[C@@H]1CN(CCc2cccc(Cl)c2)C[C@H]1COc1ccc(N(C)S(C)(=O)=O)cc1 (single isomer, unassigned) [Compound 46, N-(4-(((3S,4S) or (3R,4R)-1-(3-chlorophenethyl)-4-methylpyrrolidin-3-yl)methoxy)phenyl)-N-methylmethanesulfonamide] | 90.2 nM | 21 nM |
| C[C@H]1CN(CCc2cccc(Cl)c2)C[C@@H]1COc1ccc(N(C)S(C)(=O)=O)cc1 (single isomer, unassigned) [Compound 47, N-(4-(((3R,4R) or (3S,4S)-1-(3-chlorophenethyl)-4-methylpyrrolidin-3-yl)methoxy)phenyl)-N-methylmethanesulfonamide] | 434 nM | 516 nM |
| CC1CC(COc2ccc(S(C)(=O)=O)cc2)CN1CCc1cccc(Cl)c1 (single isomer, unassigned) [Compound 53, rac-trans or cis-1-(3-chlorophenethyl)-2-methyl-4-((4-(methylsulfonyl)phenoxy)methyl)pyrrolidine] | 856 nM | 1120 nM |
| CC1CC(COc2ccc(S(C)(=O)=O)cc2)CN1CCc1cccc(Cl)c1 (single isomer, unassigned) [Compound 54, rac-cis or trans-1-(3-chlorophenethyl)-2-methyl-4-((4-(methylsulfonyl)phenoxy)methyl)pyrrolidine] | < 114 nM | > 30000 nM |
| CC1CC(COc2ccc(S(C)(=O)=O)cc2)CN1CCc1cccc(Cl)c1 (single isomer, unassigned) [Compound 55, (2R,4S) or (2R,4R) or (2S,4R) or (2S,4S)-1-(3-chlorophenethyl)-2-methyl-4-((4-(methylsulfonyl)phenoxy)methyl)pyrrolidine] | 1290 nM | 1680 nM |
| CC1CC(COc2ccc(S(C)(=O)=O)cc2)CN1CCc1cccc(Cl)c1 (single isomer, unassigned) [Compound 56, (2R,4R) or (2S,4R) or (2S,4S) or (2R,4S)-1-(3-chlorophenethyl)-2-methyl-4-((4-(methylsulfonyl)phenoxy)methyl)pyrrolidine] | 580 nM | 1680 nM |
| CC1CC(COc2ccc(S(C)(=O)=O)cc2)CN1CCc1cccc(Cl)c1 (single isomer, unassigned) [Compound 57, (2S,4R) or (2S,4S) or (2R,4S) or (2R,4R)-1-(3-chlorophenethyl)-2-methyl-4-((4-(methylsulfonyl)phenoxy)methyl)pyrrolidine] | < 5000 nM | 1680 nM |
| CC1CC(COc2ccc(S(C)(=O)=O)cc2)CN1CCc1cccc(Cl)c1 (single isomer, unassigned) [Compound 58, (2S,4S) or (2R,4S) or (2R,4R) or (2S,4R)-1-(3-chlorophenethyl)-2-methyl-4-((4-(methylsulfonyl)phenoxy)methyl)pyrrolidine] | 72.7 nM | < 41 nM |
| CS(=O)(=O)c1ccc(OC[C@@H](O)CN2CCCCC2Cc2cccc(Cl)c2)cc1 (single isomer, unassigned) [Compound 63, (2S)-1-((S) or (R)-2-(3-chlorobenzyl)piperidin-1-yl)-3-(4-(methylsulfonyl)phenoxy)propan-2-ol] | 637 nM | 3960 nM |
| CS(=O)(=O)c1ccc(OC[C@@H](O)CN2CCCCC2Cc2cccc(Cl)c2)cc1 (single isomer, unassigned) [Compound 64, (2S)-1-((R) or (S)-2-(3-chlorobenzyl)piperidin-1-yl)-3-(4-(methylsulfonyl)phenoxy)propan-2-ol] | 570 nM | 1120 nM |
| CN(c1ccc(OC[C@@H](O)CN2CCC(c3cccc(Cl)c3)C2(C)C)cc1)S(C)(=O)=O (single isomer, unassigned) [Compound 69, N-(4-((S)-3-((S) or (R)-3-(3-chlorophenyl)-2,2-dimethylpyrrolidin-1-yl)-2-hydroxypropoxy)phe-nyl)-N-methylmethanesulfon-amide] | 12900 nM | > 30000 nM |
| CN(c1ccc(OC[C@@H](O)CN2CCC(c3cccc(Cl)c3)C2(C)C)cc1)S(C)(=O)=O (single isomer, unassigned) [Compound 70, N-(4-((R)-(S)-3-((R) or (S)-3-(3-chlorophenyl)-2,2-dimethylpyrrolidin-1-yl)-2-hydroxypropoxy)phe-nyl)-N-methylmethanesulfon-amide] | 295 nM | 303 nM |
| CN(c1ccc(OC[C@H](O)CN2CCC(c3cccc(Cl)c3)C2(C)C)cc1)S(C)(=O)=O (single isomer, unassigned) [Compound 72, N-(4-((R)-3-((S) or (R)-3-(3-chlorophenyl)-2,2-dimethylpyrrolidin-1-yl)-2-hydroxypropoxy)phe-nyl)-N-methylmethanesulfon-amide] | 314 nM | 1220 nM |
| CN(c1ccc(OC[C@H](O)CN2CCC(c3cccc(Cl)c3)C2(C)C)cc1)S(C)(=O)=O (single isomer, unassigned) [Compound 73, N-(4-((R)-3-((R) or (S)-3-(3-chlorophenyl)-2,2-dimethylpyrrolidin-1-yl)-2-hydroxypropoxy)phe-nyl)-N-methylmethanesulfon-amide] | 3060 nM | > 17800 nM |
| CN(c1ccc(OC[C@@H](O)CN2CCC(c3cccc(Cl)c3)C2)cc1)S(C)(=O)=O (single isomer, unassigned) [Compound 75, N-(4-((S)-3-((S) or (R)-3-(3-chlorophenyl)pyrro-lidin-1-yl)-2-hydroxypropoxy)phe-nyl)-N-methylmethanesulfon-amide] | 558 nM | 1460 nM |
| CN(c1ccc(OC[C@@H](O)CN2CCC(c3cccc(Cl)c3)C2)cc1)S(C)(=O)=O (single isomer, unassigned) [Compound 76, N-(4-((S)-3-((R) or (S)-3-(3-chlorophenyl)pyrro-lidin-1-yl)-2-hydroxypropoxy)phe-nyl)-N-methylmethanesulfon-amide] | 2830 nM | > 6280 nM |
| CN(c1ccc(OC[C@H](O)CN2CCC(c3cccc(Cl)c3)C2)cc1)S(C)(=O)=O (single isomer, unassigned) [Compound 78, N-(4-((R)-3-((S) or (R)-3-(3-chlorophenyl)pyrro-lidin-1-yl)-2-hydroxypropoxy)phe-nyl)-N-methylmethanesulfon-amide] | 7010 nM | > 30000 nM |
| CN(c1ccc(OC[C@H](O)CN2CCC(c3cccc(Cl)c3)C2)cc1)S(C)(=O)=O (single isomer, unassigned) [Compound 79, N-(4-((R)-3-((R) or (S)-3-(3-chlorophenyl)pyrro-lidin-1-yl)-2-hydroxypropoxy)phe-nyl)-N-methylmethanesulfon-amide] | 1290 nM | > 13700 nM |
